# Test results from paper PMC6278378, “Virtual Screening, Biological Evaluation, and 3D-QSAR Studies of New HIV-1 Entry Inhibitors That Function via the CD4 Primary Receptor” (Molecules, 2018).
# pIC50: −log10 of the molar value. Entries after “also recorded” stand apart in the source; their conditions may differ.
# How the values were obtained:
# [1] = biological target: T1, CD4 (Homo sapiens, UniProt P01730); test: CD4 competitive binding assay (FITC anti-human CD4 antibody, SUP-T1 cells)
# T1 construct: endogenous in cells; host or cells: SUP-T1 cells
# Method: We chose CD4-expressing SUP-T1 cells to perform the competitive CD4 binding assay. Non-labeled anti-human CD4 antibody (RPA-T4 clone, BioLegend, San Diego, CA, USA) was used as a positive control.
# The SUP-T1 cells were cultured in RPMI1640 medium supplemented with 10% (v/v) fetal bovine serum (FBS), 100 IU penicillin, 0.1 mg/mL streptomycin, and 2 mM L-glutamine. After collecting and washing twice with fluorescence activated cell sorting (FACS) buffer (0.5% BSA, 0.05% sodium azide in PBS) by centrifugation, SUP-T1 cells were seeded in a 96-well v-bottom plate at 5 × 10^5 cells/well. The supernatant was discarded by centrifugation and the cell pellet was resuspended with 50 μL various 2× concentrations of test compounds and 50 μL fluorescein isothiocyanate (FITC) labeled anti-human CD4 antibody (RPA-T4 clone, BioLegend, San Diego, CA, USA). The plate was incubated for 40 min on ice. After incubation, the cells were washed twice with FACS buffer by centrifugation, and then resuspended with the assay buffer. The FACS buffer was added at a volume of 50 μL per well. The fluorescence (485EX/528EM) was recorded using a Synergy II plate reader (BioTek Instruments, Inc., Winooski, VT, USA). Experimental data were generated in duplicate each time, and from at least three independent experiments. The mean values of fluorescence were normalized and expressed as a percentage of the control group values. Binding curves and IC50 values were calculated by GraphPad Prism 7 (GraphPad Software Inc., La Jolla, CA, USA) and presented as the mean ± SEM.
# [2] = tested on: SUP-T1 cells; test: SUP-T1 cell viability assay; type: cell-based; conditions: up to 200 μM
# Method: We also performed a cell viability assay to test the potential cytotoxicity of 3. In parallel with the competitive CD4 binding assay described above, the same densities of SUP-T1 cells were seeded and treated with the test compounds for the same duration.
# [3] = tested on: HIV-1 NL4-3 strain; test: Anti-HIV-1 infection assay (CEM-GFP reporter cells, GFP fluorescence); type: cell-based; conditions: Human immunodeficiency virus 1, NL43, HIV-1 NL4-3, 4-5 days
# Description: We performed anti-HIV-1 infection and anti-HIV-1 entry assays by measuring GFP expression and intracellular p24 antigen level. For the anti-HIV-1 infection assays, the CEM-GFP reporter cell line was used, and HIV-1 infection induced a 10- to 1000-fold increase in the relative fluorescence of the cells.
# The CEM-GFP cells were obtained from the NIH AIDS program (NIH AIDS Reagent Program, Division of AIDS, NIAID, NIH: CEM-GFP Cells from Dr. Jacques Corbeil) and cultured in RPMI 1640 medium containing 10% FBS, 1% penicillin-streptomycin (Life Technologies, Carlsbad, CA, USA), 1% 200 mM L-glutamine (Mediatech-VWR, Aurora, CO, USA), and 500 µg/mL G418 (BioPioneer Inc, San Diego, CA, USA). After collecting and counting, the CEM-GFP cells were infected with HIV-1 NL4-3 strain (MOI 0.01) at 37 °C for 2–3 h, cells were then washed twice with PBS, and 10^5 cells/well were seeded into a 96-well plate in the presence of different concentrations of test compounds. After culturing at 37 °C with 5% CO2 for 4 or 5 days, the GFP fluorescence (485EX/528EM) was measured using a Synergy II microplate reader (BioTek Instruments, Inc., Winooski, VT, USA).
# [4] = tested on: HIV-1 (NL4-3 strain); test: microbe, parasite or virus in culture; type: cell-based; conditions: Human immunodeficiency virus 1, NL43, PBMC; PBMCs, HIV-1 NL4-3, 24 h; read-out: IC50, HIV-1 entry inhibition (intracellular p24)
# Method: We also performed anti-HIV-1 entry assays to investigate the potential suppression by 3 of HIV-1 infection via its entry mechanism.
# The Anti-HIV-1 entry assay was performed by measuring intercellular p24 antigen. Before the infection, PBMCs (2.5 × 10^6 cells/mL) were added into 96-well plates at 100 μL/well, then co-incubated with compounds of various concentrations for 2 h. PBMCs were then washed twice with PBS and infected with the NL4-3 strain of HIV-1 at an MOI of 0.02 for 2 h at 37 °C with 5% CO2 (CO2 incubator, Eppendorf, Hamburg, Germany). After two washes with PBS (1200 rpm, 20 °C, 5 min), the cells were re-suspended in 100 µL complete medium and incubated for 24 h. Subsequently, the PBMCs were washed and resuspended in 100 µL/well lysis buffer containing 1% protease inhibitor cocktail (Sigma-Aldrich, St. Louis, MO, USA). The intercellular p24 antigen was measured according to the protocol provided with the HIV-1 ELISA kit (PerkinElmer Inc. Waltham, MA, USA).
# [5] = tested on: PBMCs; test: PBMC viability assay (CellTiter-Blue); type: cell-based; conditions: up to 150 μM
# Method: We employed a cell viability assay to test the potential cytotoxicity of 3. In parallel with the anti-HIV-1 assay described above, the same densities of PBMCs were seeded and treated with the test compounds for the same duration.
# Blood samples were collected from healthy donors and diluted with an equal amount of 1× PBS. Approximately 15 mL Ficoll was transferred to a sterile 50 mL tube, and then overlaid with 15 mL diluted blood. After centrifugation (Centrifuge 5810R, Eppendorf, Hamburg, Germany) at 1800 rpm for 30 min at room temperature, the PBMCs were obtained and washed twice with 40 mL 1× PBS by centrifugation (1100 rpm, 10 min for each time) at room temperature. Cell pellets were resuspended in 50 mL RPMI 1640 supplemented with 10% FBS and 100 μg/mL Phytohemagglutinin (PHA, Sigma-Aldrich, St. Louis, MO, USA) and cultured for 24 h at 37 °C with 5% CO2. […]
# In addition to the anti-HIV assays described above, the same numbers of PBMCs were seeded and treated with the test compounds for the same periods. After a 24 h incubation at 37 °C, the cell viability was determined using the CellTiter-Blue (Promega Co., Madison, WI, USA) cell viability assay. The fluorescence (560EX/590EM) was recorded using a Synergy II microplate reader.
# [6] = tested on: HIV-1; design: method as in PMID 12207905; conditions: inactive or weakly active; cited from earlier work
# [7] = tested on: various cancer cell lines; design: method as in PMID 26474275, PMID 22524450; conditions: 100 μM; by increasing intracellular ROS level; cited from earlier work
compound,measurement,setting,value
"O=C(O)CCc1c2ccc(=O)c(O)c-2oc2c(O)c(O)ccc12 [Compound 3, 3-(4,5,6-trihydroxy-3-oxo-3H-xanthen-9-yl) propanoic acid]",inhibition at 100 µM,"[1]; 100 μM, inhibition of anti-human CD4 antibody binding to SUP-T1 cells",94.9%
same,pIC50,"[1]; SUP-T1 cells, anti-human CD4 antibody competition",4.35
same,PInhibition (Experimental Data),"[1]; transformed from % inhibition at 100 μM, presented as -ln",5.273
same,Cytotoxicity in SUP-T1 cell viability assay,[2],no cytotoxicity
same,Cytotoxicity in SUP-T1 cell viability assay,[2]; listed as NSC119915,not showing any cytotoxicity
same,pIC50,[3],5.00
same,pIC50,[4],5.05
same,Cytotoxicity in PBMCs,[5],without a cytotoxicity effect; also recorded: no cytotoxicity; also recorded: did not show an ability to affect cell growth
same,protection in anti-HIV-1 infection assay,[6],0–49%
same,growth inhibition of cancer cell lines,[7],inhibit the growth
